These are literature values, as cited in patent US11672781B2, “Metaxalone formulations” (PRANA BIOSCIENCES INC, priority 2018, dated 2023).

The conditions of this series: independent of pH across the physiological pH range found in the GI tract.

`Cc1cc(C)cc(OCC2CNC(=O)O2)c1` (stereo not shown) [metaxalone, 5-[(3,5-dimethylphenoxy)methyl]-2-oxazolidinone]: the Aqueous solubility result was “less than 50 ug/ml”.
